The record followed here is PubChem BioAssay AID330 (DTP/NCI, 2004).

The subject of the test is P388 leukemia ip, CD2F1 mice, survival T/C. The experiment in a line: NCI In Vivo Anticancer Drug Screen. Data for tumor model P388 Leukemia (intraperitoneal) in CD2F1 (CDF1) mice. The note with it: endpoint: median survival time, higher = longer survival. Put shortly:
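Mice carrying the transplanted tumor received test compound or vehicle. Survival was recorded in each group, and the value is the treated-group measurement divided by that of the vehicle-treated control group.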

Setting [1] is: dose: 50.0 mg/kg/injection, schedule: Q01DX009 (ip), vehicle: saline with Tween-80.
[2] abbreviates: dose: 100.0 mg/kg/injection, schedule: Q01DX009 (ip), vehicle: saline with Tween-80.
The mark [3] stands for this setting: dose: 200.0 mg/kg/injection, schedule: Q01DX009 (ip), vehicle: saline with Tween-80.
Where [4] appears, read: dose: 60.0 mg/kg/injection, schedule: Q01DX005 (ip), vehicle: saline with Tween-80.
Setting [5] is: dose: 120.0 mg/kg/injection, schedule: Q01DX005 (ip), vehicle: saline with Tween-80.
[6] abbreviates: dose: 240.0 mg/kg/injection, schedule: Q01DX005 (ip), vehicle: saline with Tween-80.

“And” between values parts separate entries of the source, which are not always exact repeats. Equal values may be shown once. Toxic doses and inconclusive results are not listed.

As to `Cc1cc2c(cc1C)C(=O)c1c(C)ccc(C)c1C2=O`, the T/C by setting is: (dose: 12.5 mg/kg/injection, schedule: Q01DX005 (ip), vehicle: saline with Tween-80) 99 % of control; (dose: 25.0 mg/kg/injection, schedule: Q01DX005 (ip), vehicle: saline with Tween-80) 99 % of control; (dose: 50.0 mg/kg/injection, schedule: Q01DX005 (ip), vehicle: saline with Tween-80) 86 % of control and 89 % of control.
In the case of `O=C1C=C\C(=C/C=C\C=C2/C=CC(=O)O2)O1`, the T/C is 93 % of control (dose: 50.0 mg/kg/injection, schedule: Q01DX005 (ip), vehicle: Klucel (hydroxypropylcellulose) (HPC)); 100 % of control (dose: 100.0 mg/kg/injection, schedule: Q01DX005 (ip), vehicle: Klucel (hydroxypropylcellulose) (HPC)); 96 % of control (dose: 200.0 mg/kg/injection, schedule: Q01DX005 (ip), vehicle: Klucel (hydroxypropylcellulose) (HPC)).
Take `COc1ccc(OC)c(CC=C(C)C)c1`: the T/C runs as follows: (dose: 15.25 mg/kg/injection, schedule: Q01DX009 (ip), vehicle: Klucel (hydroxypropylcellulose) (HPC)) 100 % of control; (dose: 30.5 mg/kg/injection, schedule: Q01DX009 (ip), vehicle: Klucel (hydroxypropylcellulose) (HPC)) 97 % of control; (dose: 61.0 mg/kg/injection, schedule: Q01DX009 (ip), vehicle: Klucel (hydroxypropylcellulose) (HPC)) 107 % of control; (dose: 122.0 mg/kg/injection, schedule: Q01DX009 (ip), vehicle: Klucel (hydroxypropylcellulose) (HPC)) 100 % of control.
`c1ccc(CN2C3Oc4ccccc4C2Oc2ccccc23)cc1`: the T/C was 100 % of control (dose: 12.5 mg/kg/injection, schedule: Q01DX009 (ip), vehicle: saline with Tween-80); 100 % of control (dose: 25.0 mg/kg/injection, schedule: Q01DX009 (ip), vehicle: saline with Tween-80); 91 % of control under setting [1].
In the case of `Cc1cccc2cc3ccccc3c[n+]12`, the T/C reads like this: (dose: 6.25 mg/kg/injection, schedule: Q01DX005 (ip), vehicle: saline + Tween-80 + alcohol) 101 % of control; (dose: 12.5 mg/kg/injection, schedule: Q01DX005 (ip), vehicle: saline + Tween-80 + alcohol) 101 % of control; (dose: 25.0 mg/kg/injection, schedule: Q01DX005 (ip), vehicle: saline + Tween-80 + alcohol) 101 % of control.
As for `CC1(C)CCCc2c(-c3ccccc3)cc3c4[nH]c5ccccc5c4cc[n+]3c21`, the T/C runs as follows: under setting [1], 99 % of control; under setting [2], 99 % of control; under setting [3], 101 % of control.
Take `CC(CC(=O)c1cccc([N+](=O)[O-])c1)=NCC(C)N=C(C)CC(=O)c1cccc([N+](=O)[O-])c1` (stereo not drawn): the T/C was 98 % of control (dose: 100.0 mg/kg/injection, schedule: Q04DX003 (ip), vehicle: saline with Tween-80); 101 % of control (dose: 200.0 mg/kg/injection, schedule: Q04DX003 (ip), vehicle: saline with Tween-80); 106 % of control (dose: 400.0 mg/kg/injection, schedule: Q04DX003 (ip), vehicle: saline with Tween-80).
Regarding `Cc1cc(C(=O)O)c(C)c([N+](=O)[O-])c1`, the T/C is 88 % of control under setting [1]; 104 % of control under setting [2]; 98 % of control under setting [3]; 100 % of control (dose: 400.0 mg/kg/injection, schedule: Q01DX009 (ip), vehicle: saline with Tween-80).
As for `Nc1ccccc1C(=O)CC1OC(=O)c2ccccc21` (stereo not drawn), the T/C was 105 % of control under setting [4], 105 % of control under setting [5] and 97 % of control under setting [6].
With `Cc1oc2ccccc2c(=O)c1Cn1nnc2ccccc21`, the T/C is 103 % of control under setting [4], 103 % of control under setting [5] and 94 % of control under setting [6].
For `O=c1c(-c2ccccc2)c(O)on1/C=C1/C=CC=N1`, the T/C under setting [1] is 105 % of control, the T/C under setting [2] is 95 % of control and the T/C under setting [3] is 103 % of control.
`CCN(CC)c1ccc(Pc2ccc(N(CC)CC)cc2)cc1`: the T/C runs as follows: (dose: 12.5 mg/kg/injection, schedule: Q01DX009 (ip), vehicle: saline) 104 % of control; (dose: 25.0 mg/kg/injection, schedule: Q01DX009 (ip), vehicle: saline) 108 % of control; (dose: 50.0 mg/kg/injection, schedule: Q01DX009 (ip), vehicle: saline) 99 % of control and 88 % of control; (dose: 200.0 mg/kg/injection, schedule: Q01DX009 (ip), vehicle: saline) 92 % of control.
`CCOC(=O)/N=[N+](\[O-])c1cccc(Br)c1`: the T/C (dose: 100.0 mg/kg/injection, schedule: Q01DX001 (ip), vehicle: Klucel (hydroxypropylcellulose) (HPC)) is 101 % of control.
As for `CC1CC(c2ccc(Cl)cc2)C(c2ccc(Cl)cc2)C(=O)O1` (stereo not drawn), for the setting “dose: 100.0 mg/kg/injection, schedule: Q01DX009 (ip), vehicle: Klucel (hydroxypropylcellulose) (HPC)”, the T/C is 90 % of control.
Consider `Nc1ccc(S(=O)(=O)Nc2nc(/C=C/c3ccccc3)cc(-c3cc(/C=C/c4ccccc4)nc(NS(=O)(=O)c4ccc(N)cc4)n3)n2)cc1`, for which the T/C under setting [4] was 94 % of control, the T/C under setting [5] is 95 % of control and the T/C under setting [6] was 94 % of control.
For the compound `Cc1csc(N2C(=O)c3cccc4cccc(c34)C2=O)n1`, the T/C is 110 % of control under setting [4], 96 % of control under setting [5] and 96 % of control under setting [6].
On to `O=c1[nH]c2cc(Cl)ccc2nc1/C=C(\O)c1ccc(F)cc1`, for which the T/C is 89 % of control under setting [4], 87 % of control under setting [5] and 102 % of control under setting [6].
Turning to `CC(=O)OC1C(C)OC(OC(=O)C2CCC3C(C2)OC2(CC(OC(=O)/C=C/c4ccccc4)C(C)CO2)C32CO2)C(OC2OC(C)C(O)C(OC(C)=O)C2O)C1O` (stereo not drawn), the T/C is 97 % of control (dose: 0.62 mg/kg/injection, schedule: Q01DX009 (ip), vehicle: saline + alcohol); 97 % of control (dose: 0.75 mg/kg/injection, schedule: Q01DX005 (ip), vehicle: saline + alcohol); 105 % of control (dose: 1.25 mg/kg/injection, schedule: Q01DX009 (ip), vehicle: saline + alcohol); 106 % of control (dose: 1.5 mg/kg/injection, schedule: Q01DX005 (ip), vehicle: saline + alcohol); 113 % of control (dose: 1.67 mg/kg/injection, schedule: Q01DX009 (ip), vehicle: saline + alcohol); 104 % of control (dose: 1.75 mg/kg/injection, schedule: Q01DX009 (ip), vehicle: saline + alcohol). Besides, the T/C is, setting by setting: (dose: 2.5 mg/kg/injection, schedule: Q01DX009 (ip), vehicle: saline + alcohol) 105 % of control; (dose: 3.0 mg/kg/injection, schedule: Q01DX005 (ip), vehicle: saline + alcohol) 114 % of control; (dose: 3.5 mg/kg/injection, schedule: Q01DX009 (ip), vehicle: saline + alcohol) 108 % of control; (dose: 5.0 mg/kg/injection, schedule: Q01DX009 (ip), vehicle: saline + alcohol) 106 % of control; (dose: 6.0 mg/kg/injection, schedule: Q01DX005 (ip), vehicle: saline + alcohol) 115 % of control; (dose: 6.68 mg/kg/injection, schedule: Q01DX009 (ip), vehicle: saline + alcohol) 152 % of control. In addition, the T/C was 110 % of control (dose: 7.0 mg/kg/injection, schedule: Q01DX009 (ip), vehicle: saline + alcohol); 111 % of control (dose: 13.35 mg/kg/injection, schedule: Q01DX009 (ip), vehicle: saline + alcohol); 118 % of control (dose: 14.0 mg/kg/injection, schedule: Q01DX009 (ip), vehicle: saline + alcohol).
On to `COc1ccc(CCNCCc2ccc(OC)c(OC)c2)cc1OC`, for which the T/C runs as follows: (dose: 6.25 mg/kg/injection, schedule: Q01DX009 (ip), vehicle: water) 96 % of control; (dose: 12.5 mg/kg/injection, schedule: Q01DX009 (ip), vehicle: water) 108 % of control; (dose: 25.0 mg/kg/injection, schedule: Q01DX009 (ip), vehicle: water) 100 % of control; (dose: 50.0 mg/kg/injection, schedule: Q01DX009 (ip), vehicle: water) 100 % of control; (dose: 100.0 mg/kg/injection, schedule: Q01DX009 (ip), vehicle: water) 90 % of control.
Consider `O=CNNc1ccc2nnc(Cl)n2n1`, for which the T/C was 101 % of control (dose: 100.0 mg/kg/injection, schedule: Q04DX003 (ip), vehicle: saline); 97 % of control (dose: 200.0 mg/kg/injection, schedule: Q04DX003 (ip), vehicle: saline); 93 % of control (dose: 400.0 mg/kg/injection, schedule: Q04DX003 (ip), vehicle: saline).
Regarding `COc1cc(C(=O)CC(=O)Cc2ccc3ccccc3n2)cc(OC)c1OC`, the T/C (dose: 0.93 mg/kg/injection, schedule: Q01DX005 (ip), vehicle: saline with Tween-80) is 102 % of control; the T/C (dose: 1.88 mg/kg/injection, schedule: Q01DX005 (ip), vehicle: saline with Tween-80) is 103 % of control; the T/C (dose: 3.75 mg/kg/injection, schedule: Q01DX005 (ip), vehicle: saline with Tween-80) is 98 % of control; the T/C under setting [5] was 90 % of control; the T/C under setting [6] is 97 % of control.
